Holding throughout (format): cell-based
Experiment [1] deals with HCC827-SVD cells (human EGFR exon 20 insertion mutant D770_N771 insSVD). The experiment in a line: Cell growth inhibition (CellTiter-Glo, 3 days) in HCC827-SVD. The conditions noted are these: 72 h, 3 days after administration. Here is the method: (§1) 1. Preparation of HCC827-SVD, HCC827-ASV and HCC827-YVMA Cell Lines
HCC827-SVD cell line were generated by first transducing HCC827 cells (ATCC) with lentiviral particles expressing codon-optimized human EGFR exon 20 insertion mutant D770_N771 insSVD, and then selecting under 5 μg/ml purimycin treatment for a week.
The resulting cells were further transduced with lentiviral particles carrying EGFR sgRNA and CAS9 to knockout the endogenous alleles of EGFR, and then selected under 500 μg/ml hygromycin B treatment for two weeks. Single clone was subsequently generated by limiting dilution approach. Endogenous EGFR knockout was confirmed by Sanger sequencing of cell genomic DNA and expression of exogenous mutant EGFR was verified by Western blot analysis.
(§2) 2. Cell Growth Inhibition for HCC827, HCC827-SVD, HCC827-ASV, HCC827-YVMA and A431.
(§3) HCC827(ATCC), HCC827-SVD, HCC827-ASV, HCC827-YVMA were seeded in 96-well plates at 5000 cells/well in 90 μl of RPMI growth medium containing 10% FBS and 1% Penicillin Streptomycin. A431 (ATCC) cells were seed in 96-well plates at 5000 cells/well in 90 μl of DMEM growth medium containing 10% FBS and 1% Penicillin Streptomycin. Cells were incubated at 3700 overnight. The following day, the test compound was administered to the cells by using 1 Ox compound stock solution prepared in growth medium at various concentrations. After administration of the compound, cells were then incubated at 3700 for 3 days. Before CeIlTiter-Glo assay, the plates were equilibrated at room temperature for approximately 10 minutes. 100 ul of CelTiter-Glo® Reagent (Promega) was added to each well. The plates were then incubated at room temperature for 10 minutes and luminescence was recorded by EnSpire plate reader (PerkinElmer).

The subject of the next experiment is HCC827 cells. The experiment in a line: Cell growth inhibition (CellTiter-Glo, 3 days) in HCC827. The conditions noted are these: Homo sapiens, 72 h, 3 days after administration. Here is the method:
as §2, §3

Experiment [2] has as its system HCC827-ASV cells (human EGFR exon 20 insertion mutant A769_D770insASV). Kind of experiment: Cell growth inhibition (CellTiter-Glo, 3 days) in HCC827-ASV. The settings on record: 72 h, 3 days after administration.
Source text: as §1
(§4) HCC827-ASV and HCC827-YVMA cell lines were generated in the similar approach as HCC827-SVD except that HCC827 cells (ATCC) were first transduced with lentiviral particles expressing codon-optimized human EGFR exon 20 insertion mutant A769_D770insASV and human ERBB2 exon20 insertion mutant A775_G776ins YVMA, respectively.
as §2, §3

In experiment [3] the test system is HCC827-YVMA cells (human ERBB2 exon20 insertion mutant A775_G776ins YVMA). The experiment in a line: Cell growth inhibition (CellTiter-Glo, 3 days) in HCC827-YVMA. The conditions noted are these: 72 h, 3 days after administration.
Source text: as §1, §4, §2, §3

Another experiment relates to A431 cells. Kind of experiment: Cell growth inhibition (CellTiter-Glo, 3 days) in A431. The settings on record: Homo sapiens, A-431, 72 h, 3 days after administration. The protocol:
as §2, §3

Turning to `C=CC(=O)N1CCC(Nc2cc3c(Nc4ccc(Oc5ccn(-c6cnc(OC)nc6)n5)cc4F)ncnc3cc2OC)CC1` [Compound 1, 1-(4-((4-((2-fluoro-4-((1-(2-methoxypyrimidin-5-yl)-1H-pyrazol-3-yl)oxy)phenyl)amino)-7-methoxyquinazolin-6-yl)amino)piperidin-1-yl)prop-2-en-1-one], the GI50 lay in the range of 60 to 100 nM in experiment [1]; 300 to 600 nM in the experiment on HCC827 cells; 30 to 60 nM in experiment [2]; 60 to 100 nM in experiment [3]; 300 to 600 nM in the experiment with A431 cells.
For the molecule `C=CC(=O)N1CCC(Nc2cc3c(Nc4ccc(Oc5ccn(-c6cnc(C)c(F)c6)n5)cc4F)ncnc3cc2OC)CC1` [Compound 2, 1-(4-((4-((2-fluoro-4-((1-(5-fluoro-6-methylpyridin-3-yl)-1H-pyrazol-3-yl)oxy)phenyl)amino)-7-methoxyquinazolin-6-yl)amino)piperidin-1-yl)prop-2-en-1-one], the 50% growth inhibitory concentration (GI50) was under 30 nM in experiment [1]; under 30 nM with HCC827 cells; under 30 nM in experiment [2]; under 30 nM in experiment [3]; 60 to 100 nM with A431 cells.
Regarding `C=CC(=O)N1CCC(Nc2cc3c(Nc4ccc(Oc5ccn(-c6ccc(C)nc6)n5)cc4F)ncnc3cc2OC)CC1` [Compound 3, 1-(4-((4-((2-fluoro-4-((1-(6-methylpyridin-3-yl)-1H-pyrazol-3-yl)oxy)phenyl)amino)-7-methoxyquinazolin-6-yl)amino)piperidin-1-yl)prop-2-en-1-one], the GI50 in experiment [1] fell in the range of 60 to 100 nM; with HCC827 cells it was 300 to 600 nM; in experiment [2], 30 to 60 nM; in experiment [3], 30 to 60 nM; in the experiment on A431 cells it was 100 to 300 nM.
Take `C=CC(=O)N1CCC(Nc2cc3c(Nc4ccc(Oc5nc(-c6nnc(C(C)C)o6)cs5)cc4F)ncnc3cc2OC)CC1` [Compound 4, 1-(4-((4-((2-fluoro-4-((4-(5-isopropyl-1,3,4-oxadiazol-2-yl)thiazol-2-yl)oxy)phenyl)amino)-7-methoxyquinazolin-6-yl)amino)piperidin-1-yl)prop-2-en-1-one]: the GI50 in experiment [1] lay within 100 to 300 nM; in the experiment on HCC827 cells it was 300 to 600 nM; in experiment [2], 100 to 300 nM; in experiment [3], 100 to 300 nM; in the experiment with A431 cells, 300 to 600 nM.
On to `C=CC(=O)N1CCC(Nc2cc3c(Nc4ccc(Oc5ncc(-c6ccc(C)nc6)s5)cc4F)ncnc3cc2OC)CC1` [Compound 5, 1-(4-((4-((2-fluoro-4-((5-(6-methylpyridin-3-yl)thiazol-2-yl)oxy)phenyl)amino)-7-methoxyquinazolin-6-yl)amino)piperidin-1-yl)prop-2-en-1-one], for which the 50% growth inhibitory concentration (GI50) in experiment [1] lay within 100 to 300 nM; in the experiment with HCC827 cells it was 100 to 300 nM; in experiment [2], 100 to 300 nM; in experiment [3], 100 to 300 nM; in the experiment with A431 cells, 300 to 600 nM.
Turning to `C=CC(=O)N1CCC(Nc2cc3c(Nc4ccc(Oc5nc(-c6ccc(C)nc6)cs5)cc4F)ncnc3cc2OC)CC1` [Compound 6, 1-(4-((4-((2-fluoro-4-((4-(6-methylpyridin-3-yl)thiazol-2-yl)oxy)phenyl)amino)-7-methoxyquinazolin-6-yl)amino)piperidin-1-yl)prop-2-en-1-one], the 50% growth inhibitory concentration (GI50) in experiment [1] is 300 to 600 nM; in the experiment on HCC827 cells, at least 1000 nM; in experiment [2], 300 to 600 nM; in experiment [3], 300 to 600 nM; in the experiment on A431 cells, 300 to 600 nM.
As for `C=CC(=O)N1CCC(Nc2cc3c(Nc4ccc(Oc5ccn6ncnc6c5)c(Cl)c4)ncnc3cc2OC)CC1` [Compound 7, 1-(4-((4-((4-([1,2,4]triazolo[1,5-a]pyridin-7-yloxy)-3-chlorophenyl)amino)-7-methoxyquinazolin-6-yl)amino)piperidin-1-yl)prop-2-en-1-one], the GI50 (in experiment [1]; in the experiment on HCC827 cells; in experiment [2]; in experiment [3]; with A431 cells) was under 30 nM throughout.
`C=CC(=O)N1CC[C@H](Nc2cc3c(Nc4ccc(Oc5ccn(-c6cnc(OC)nc6)n5)cc4F)ncnc3cc2OC)C1` [Compound 8, (S)-1-(3-((4-((2-fluoro-4-((1-(2-methoxypyrimidin-5-yl)-1H-pyrazol-3-yl)oxy)phenyl)amino)-7-methoxyquinazolin-6-yl)amino)pyrrolidin-1-yl)prop-2-en-1-one]: the 50% growth inhibitory concentration (GI50) lay within 30 to 60 nM in experiment [1]; 100 to 300 nM in the experiment with HCC827 cells; 100 to 300 nM in experiment [2]; 30 to 60 nM in experiment [3]; 300 to 600 nM with A431 cells.
On to `C=CC(=O)N1CC[C@@H](Nc2cc3c(Nc4ccc(Oc5ccn(-c6cnc(OC)nc6)n5)cc4F)ncnc3cc2OC)C1` [Compound 9, (R)-1-(3-((4-((2-fluoro-4-((1-(2-methoxypyrimidin-5-yl)-1H-pyrazol-3-yl)oxy)phenyl)amino)-7-methoxyquinazolin-6-yl)amino)pyrrolidin-1-yl)prop-2-en-1-one], for which the GI50 (in experiment [1]; in the experiment with HCC827 cells; in experiment [2]; in experiment [3]; in the experiment on A431 cells) was at least 1000 nM each time.
Regarding `C=CC(=O)N1CCC(Nc2cc3c(Nc4ccc(Oc5ccn(-c6cnc(C)c(Cl)c6)n5)cc4F)ncnc3cc2OC)CC1` [Compound 10, 1-(4-((4-((4-((1-(5-chloro-6-methylpyridin-3-yl)-1H-pyrazol-3-yl)oxy)-2-fluorophenyl)amino)-7-methoxyquinazolin-6-yl)amino)piperidin-1-yl)prop-2-en-1-one], the GI50 in experiment [1] is under 30 nM; in the experiment with HCC827 cells, 30 to 60 nM; in experiment [2], under 30 nM; in experiment [3], under 30 nM; in the experiment on A431 cells it was 300 to 600 nM.
Consider `C=CC(=O)N1CCC(Nc2cc3c(Nc4ccc(Oc5ccn(-c6cnc(C)c(C#N)c6)n5)cc4F)ncnc3cc2OC)CC1` [Compound 11, 5-(3-(4-((6-((1-acryloylpiperidin-4-yl)amino)-7-methoxyquinazolin-4-yl)amino)-3-fluorophenoxy)-1H-pyrazol-1-yl)-2-methylnicotinonitrile], for which the GI50 in experiment [1] is 30 to 60 nM; in the experiment on HCC827 cells, 60 to 100 nM; in experiment [2], 30 to 60 nM; in experiment [3], 60 to 100 nM; in the experiment on A431 cells, 100 to 300 nM.
In the case of `C=CC(=O)N1CCC(Nc2cc3c(Nc4ccc(Oc5ccn(-c6ccc(OC)nc6)n5)cc4F)ncnc3cc2OC)CC1` [Compound 12, 1-(4-((4-((2-fluoro-4-((1-(6-methoxypyridin-3-yl)-1H-pyrazol-3-yl)oxy)phenyl)amino)-7-methoxyquinazolin-6-yl)amino)piperidin-1-yl)prop-2-en-1-one], the 50% growth inhibitory concentration (GI50) in experiment [1] is under 30 nM; with HCC827 cells, 30 to 60 nM; in experiment [2], under 30 nM; in experiment [3] it was under 30 nM; in the experiment with A431 cells, 100 to 300 nM.
On to `C=CC(=O)N1CCC(Nc2cc3c(Nc4ccc(Oc5ccn(-c6cnc(C)c(F)c6)n5)cc4F)ncnc3cc2OCC)CC1` [Compound 13, 1-(4-((7-ethoxy-4-((2-fluoro-4-((1-(5-fluoro-6-methylpyridin-3-yl)-1H-pyrazol-3-yl)oxy)phenyl)amino)quinazolin-6-yl)amino)piperidin-1-yl)prop-2-en-1-one], for which the GI50 is under 30 nM in experiment [1]; under 30 nM in the experiment with HCC827 cells; under 30 nM in experiment [2]; under 30 nM in experiment [3]; 300 to 600 nM in the experiment with A431 cells.
As for `C=CC(=O)N1CCC(Nc2cc3c(Nc4ccc(Oc5ccn(-c6ccc(C)cn6)n5)cc4F)ncnc3cc2OC)CC1` [Compound 14], the 50% growth inhibitory concentration (GI50) was 100 to 300 nM in experiment [1]; 60 to 100 nM in the experiment with HCC827 cells; 100 to 300 nM in experiment [2]; 60 to 100 nM in experiment [3]; 60 to 100 nM in the experiment with A431 cells.
For `C=CC(=O)N1CC[C@H](Oc2cc3c(Nc4ccc(Oc5ccn(-c6cnc(OC)nc6)n5)cc4F)ncnc3cc2OC)C1` [Compound 81, (S)-1-(3-((4-((2-fluoro-4-((1-(2-methoxypyrimidin-5-yl)-1H-pyrazol-3-yl)oxy)phenyl)amino)-7-methoxyquinazolin-6-yl)oxy)pyrrolidin-1-yl) prop-2-en-1-one], the GI50 is 100 to 300 nM in experiment [1], 300 to 600 nM in the experiment with HCC827 cells and 300 to 600 nM in the experiment on A431 cells.

The values above are taken from patent US20240398805A1, “QUINAZOLINE DERIVED COMPOUNDS AS EGFR INHIBITORS AND THEIR USES THEREOF” (ACCUTAR BIOTECHNOLOGY INC., priority 2021, published 2024).
